Reference: patent US20170273922A1, “UREA AND BIS-UREA BASED COMPOUNDS AND ANALOGUES THEREOF USEFUL IN THE TREATMENT OF ANDROGEN RECEPTOR MEDIATED DISEASES OR DISORDERS” (THE ROYAL INSTITUTION FOR THE ADVACEMENT OF LEARNING/MCGILL …, priority 2014, published 2017)

Assays:
Format in all cases: cell-based
LNCaP cells = assay: MTT assay (cytotoxicity), LNCaP cells; settings: 72 h, Table 2.2
Method: (§1) MTT assays: LNCaP, 22Rv1, Du145, H1975, A549, MB231 and MCF-7 cells are maintained in RPMI 1640 supplemented with 10% FBS. Cells were seeded at a density of 6-7×10^3 cells per well in 96-well plates. After overnight incubation, cells in fresh RPMI 1640 supplemented with 10% FBS were exposed to DMSO vehicle control or test compounds at designated concentrations for 72 h. Viable cells were evaluated by MTT assays. Experiments were performed in triplicate and repeated at least twice.

DU145 cells = assay: MTT assay (cytotoxicity), DU145 cells; settings: 72 h, Table 2.2
Method: as §1

[1] = MTT assay (cytotoxicity), LNCaP cells; settings: human, LNCaP cells
Method: as §1

[2] = MTT assay (cytotoxicity), 22Rv1 cells; settings: human, 22Rv1 cells
Method: as §1

Row | SMILES | IC50 at 72 h ([1]; 72 h treatment, Table 6.1) [µM] | IC50 at 72 h ([2]; 72 h treatment, Table 6.1) [µM] | other results
1 | O=C(N/C=C/c1cccc(C(F)(F)F)c1)Nc1cccc(C(F)(F)F)c1 [Compound 403] |  |  | IC50 (LNCaP cells): 12.3 µM; IC50 (DU145 cells): > 20 µM
2 | O=C(N/C=C/c1ccccc1C(F)(F)F)Nc1ccc([N+](=O)[O-])c(C(F)(F)F)c1 [Compound 404] |  |  | IC50 (LNCaP cells): 9.3 µM; IC50 (DU145 cells): 16.4 µM
3 | N#Cc1ccc(NC(=O)N/C=C/c2ccccc2C(F)(F)F)cc1 [Compound 405] |  |  | IC50 (LNCaP cells): 3.4 µM; IC50 (DU145 cells): 8.3 µM
4 | O=C(N/C=C/c1ccccc1C(F)(F)F)Nc1cccc(C(F)(F)F)c1 [Compound 406] |  |  | IC50 (LNCaP cells): 14.4 µM
5 | O=C(N/C=C/c1ccc(C(F)(F)F)cc1)Nc1ccc([N+](=O)[O-])c(C(F)(F)F)c1 [Compound 407] |  |  | IC50 (LNCaP cells): 9.6 µM; IC50 (DU145 cells): 15.3 µM
6 | O=C(N/C=C/c1ccc(C(F)(F)F)cc1)Nc1cccc(C(F)(F)F)c1 [Compound 408] |  |  | IC50 (LNCaP cells): 15.6 µM
7 | O=C(N/C=C/c1cccc(C(F)(F)F)c1)Nc1ccccc1 [Compound 413] |  |  | IC50 (LNCaP cells): > 20 µM
8 | COc1cccc(NC(=O)N/C=C/c2cccs2)c1 [Compound 425] |  |  | IC50 at 72 h ([1]; 72 h, Table 2.4): > 20 µM
9 | O=C(N/C=C/c1cccs1)Nc1ccc2c(c1)OCO2 [Compound 426] |  |  | IC50 at 72 h ([1]; 72 h, Table 2.4): > 20 µM
10 | O=C(N/C=C/c1c[nH]cn1)Nc1ccc([N+](=O)[O-])c(C(F)(F)F)c1 [Compound 454] |  |  | IC50 at 72 h ([1]; 72 h, Table 2.4): > 10 µM
11 | O=C(N/C=C/c1cccc(C(F)(F)F)c1)NCc1cccc(C(F)(F)F)c1 [Compound 460] |  |  | IC50 at 72 h ([1]; 72 h, Table 2.4): 7.9 µM
12 | O=C(N/C=C/c1cc(C(F)(F)F)cc(C(F)(F)F)c1)Nc1ccc2[nH]ccc2c1 [Compound 516] |  |  | IC50 at 72 h ([1]; 72 h, Table 2.3): > 10 µM; IC50 at 72 h ([2]; 72 h, Table 2.3): > 10 µM
13 | O=C(Nc1cc(N2CCOCC2)cc(C(F)(F)F)c1)Nc1ccc(NC(=O)c2ccccc2F)c(C(F)(F)F)c1 [Compound 861] | 9.7 |  | 
14 | CN1CCN(c2cc(NC(=O)Nc3ccc(NC(=O)c4ccccc4F)c(C(F)(F)F)c3)cc(C(F)(F)F)c2)CC1 [Compound 862] | 3.4 |  | 
15 | O=C(N/C=C/c1cccc(OC(F)(F)F)c1)Nc1ccncn1 [Compound 875] | 4.6 | 8.8 | 
16 | O=C(Nc1cc(F)cc(C(F)(F)F)c1)Nc1ccc(NC(=O)c2ccccc2F)c(C(F)(F)F)c1 [Compound 878] | 3.4 | 3.2 | 
17 | O=C(Nc1cccc(C(F)(F)F)c1)Nc1ccc(NC(=O)c2ccc(N3CCOCC3)cc2F)c(C(F)(F)F)c1 [Compound 879] | 6.3 | 6.8 | 
18 | O=C(Nc1ccc(NC(=O)c2ccccc2F)c(C(F)(F)F)c1)Nc1ccccc1C(F)(F)F [Compound 896] | 5.2 | 18.9 | 
19 | O=C(Nc1ccc(C(F)(F)F)cc1)Nc1ccc(NC(=O)c2ccccc2F)c(C(F)(F)F)c1 [Compound 897] | 1.9 | 7 | 
20 | O=C(Nc1cccc(C(F)(F)F)c1)Nc1ccc(NC(=O)Nc2ccc(F)cc2)c(C(F)(F)F)c1 [Compound 898] | 1.4 | 5.1 | 
21 | O=C(Nc1cccc(C(F)(F)F)c1)Nc1ccc(NC(=O)c2c(F)cccc2F)c(C(F)(F)F)c1 [Compound 900] | > 10 | 10.4 | 

Row | SMILES | IC50 at 72 h ([1]; 72 h treatment, Table 6.1) [µM] | IC50 at 72 h ([2]; 72 h treatment, Table 6.1) [µM] | other results
22 | O=C(Nc1cccc(C(F)(F)F)c1)Nc1ccc(NC(=O)c2cc(F)ccc2F)c(C(F)(F)F)c1 [Compound 901] | 6.6 | 4.7 | 
23 | O=C(Nc1cccc(C(F)(F)F)c1)Nc1ccc(NC(=O)c2ccc(F)cc2F)c(C(F)(F)F)c1 [Compound 902] | 7.4 | 4.5 | 
24 | O=C(Nc1cccc(C(F)(F)F)c1)Nc1ccc(NC(=O)c2cc(C(F)(F)F)ccc2F)c(C(F)(F)F)c1 [Compound 903] | 6.8 | 5 | 
25 | O=C(Nc1cccc(C(F)(F)F)c1)Nc1ccc(C(=O)Nc2ccc(F)cc2)c(C(F)(F)F)c1 [Compound 904] | 4.1 | 3.2 | 
26 | O=C(Nc1cccc(C(F)(F)F)c1)Nc1ccc(NC(=O)Nc2cccc(F)c2)c(C(F)(F)F)c1 [Compound 905] | 5.5 | 11.4 | 
27 | O=C(Nc1cccc(C(F)(F)F)c1)Nc1ccc(NC(=O)c2cc(Cl)ccc2F)c(C(F)(F)F)c1 [Compound 907] | 4.2 | 4.2 | 
28 | O=C(Nc1cccc(C(F)(F)F)c1)Nc1ccc(NC(=O)c2cccnc2F)c(C(F)(F)F)c1 [Compound 911] | 13.8 | 10 | 
29 | O=C(Nc1cccc(C(F)F)c1)Nc1ccc(NC(=O)c2ccccc2F)c(C(F)(F)F)c1 [Compound 912] | 11.6 | 16 | 
30 | O=C(Nc1cccc(C(F)(F)F)c1)Nc1ccc(F)c(NC(=O)c2c(F)cccc2F)c1 [Compound 913] | 12.3 | 14.2 | 
31 | O=C(Nc1cccc(NC(=O)c2cccc(F)c2)c1)Nc1cccc(C(F)(F)F)c1 [Compound 914] | 7.3 | 8.7 | 
32 | O=C(Nc1cccc(NC(=O)c2ccc(F)cc2)c1)Nc1cccc(C(F)(F)F)c1 [Compound 915] | 9 | 10.6 | 
33 | O=C(Nc1cccc(C(F)(F)F)c1)Nc1cc(NC(=O)c2ccccc2F)cc(C(F)(F)F)c1 [Compound 928] | 2.4 | 2 | 
34 | O=C(Nc1cccc(C(F)(F)F)c1)Nc1ccc(F)c(NC(=O)c2cc(Cl)ccc2F)c1 [Compound 929] | 5.5 | 5.7 | 
35 | O=C(Nc1cccc(C(F)F)c1)Nc1ccc(NC(=O)c2cc(F)ccc2F)c(C(F)(F)F)c1 [Compound 930] | 8.2 | 5.6 | 
36 | N#Cc1ccc(NC(=O)NCC(=O)c2cccc(C(F)(F)F)c2)cc1C(F)(F)F [Compound 937] |  |  | IC50 at 72 h ([1]; 72 h, Table 2.4): 7.3 µM
37 | O=C(Nc1cccc(C(F)F)c1)Nc1ccc(NC(=O)c2cc(C(F)(F)F)ccc2F)c(C(F)(F)F)c1 [Compound 941] | 5.4 | 3.6 | 
38 | O=C(Nc1cccc(C(F)(F)F)c1)Nc1ccc(F)c(NC(=O)c2cc(F)ccc2F)c1 [Compound 942] | 5.7 | 7.1 | 
39 | O=C(Nc1cccc(C(F)(F)F)c1)Nc1ccc(F)c(NC(=O)c2ccc(F)cc2F)c1 [Compound 943] | 6.3 | 13 | 
40 | O=C(Nc1cccc(C(F)(F)F)c1)Nc1ccc(F)c(NC(=O)c2cc(C(F)(F)F)ccc2F)c1 [Compound 944] | 5.5 | 4.5 | 
41 | O=C(Nc1cccc(C(F)F)c1)Nc1ccc(NC(=O)c2ccc(F)cc2F)c(C(F)(F)F)c1 [Compound 945] | 7.3 | 7.1 | 
42 | O=C(Nc1cccc(C(F)(F)F)c1)Nc1ccc(F)c(NC(=O)c2cccc(F)c2)c1 [Compound 946] | 8.4 | 9.5 | 

Row | SMILES | IC50 at 72 h ([1]; 72 h treatment, Table 6.1) [µM] | IC50 at 72 h ([2]; 72 h treatment, Table 6.1) [µM] | other results
43 | O=C(Nc1cccc(C(F)(F)F)c1)Nc1ccc(F)c(NC(=O)c2ccc(F)cc2)c1 [Compound 947] | 12.7 | 15.9 | 
44 | O=C(Nc1cccc(C(F)(F)F)c1)Nc1ccc(F)c(NC(=O)c2cccc(F)c2F)c1 [Compound 948] | 8 | 17.1 | 
45 | O=C(Nc1cccc(C(F)(F)F)c1)Nc1cc(C(=O)O)cc(C(F)(F)F)c1 [Compound 949] | 2.9 | 32.9 | 
46 | O=C(Nc1cccc(C(F)(F)F)c1)Nc1ccc(F)c(NC(=O)Nc2ccccc2F)c1 [Compound 950] | 3.8 | 7.8 | 
47 | O=C(Nc1cccc(C(F)(F)F)c1)Nc1ccc(F)c(NC(=O)c2cc(I)ccc2F)c1 [Compound 951] | 4 | 9.8 | 
48 | O=C(Nc1cccc(C(F)(F)F)c1)Nc1ccc(NC(=O)c2cc(I)ccc2F)c(C(F)(F)F)c1 [Compound 952] | 5.2 | 7.8 | 
49 | O=C(Nc1cccc(C(F)(F)F)c1)Nc1cc(NC(=O)Nc2cccc(C(F)(F)F)c2)cc(C(F)(F)F)c1 [Compound 953] | 1.4 | 0.9 | 
50 | O=C(Nc1ccc(C(F)(F)F)cc1)Nc1cc(NC(=O)Nc2ccc(C(F)(F)F)cc2)cc(C(F)(F)F)c1 [Compound 955] | 1.5 | 0.9 | 
51 | O=C(Nc1ccc(C(F)(F)F)cc1)Nc1ccc(F)c(NC(=O)c2ccc(F)cc2F)c1 [Compound 956] | 3.5 | 9.5 | 
52 | O=C(Nc1ccc(F)c(NC(=O)c2cc(C(F)(F)F)ccc2F)c1)Nc1ccccc1C(F)(F)F [Compound 959] | 13.5 | 8.7 | 
53 | O=C(Nc1ccc(F)c(NC(=O)c2ccc(F)cc2F)c1)Nc1ccccc1C(F)(F)F [Compound 960] |  | 5.7 | 
54 | O=C(Nc1cccc(C(F)(F)F)c1)Nc1ccc(F)cc1NC(=O)c1ccc(F)cc1F [Compound 961] | 6.2 | 10.1 | 
55 | O=C(Nc1ccc(Br)cc1)Nc1cc(F)ccc1NC(=O)c1ccc(F)cc1F [Compound 962] | 5.3 | 4.9 | 
56 | O=C(Nc1ccc(Br)cc1)Nc1ccc(F)c(NC(=O)c2cc(C(F)(F)F)ccc2F)c1 [Compound 963] | 2.4 | 4.7 | 
57 | O=C(Nc1cccc(F)c1)Nc1cc(NC(=O)Nc2cccc(F)c2)cc(C(F)(F)F)c1 [Compound 964] | 2.4 | 1.8 | 
58 | O=C(Nc1cccc(F)c1)Nc1cc(F)ccc1NC(=O)c1ccc(F)cc1F [Compound 965] | 4.3 | 7.7 | 
59 | O=C(Nc1cccc(NC(=O)Nc2cccc(C(F)(F)F)c2)c1)Nc1cccc(C(F)(F)F)c1 [Compound 966] |  | 6.6 | 
60 | O=C(Nc1cccc(C(F)(F)F)c1)Nc1ccccc1NC(=O)Nc1cccc(C(F)(F)F)c1 [Compound 967] | 2.7 | 3.1 | 
61 | N#Cc1ccc(NC(=O)NCC(=O)c2ccc(F)cc2)cc1C(F)(F)F [Compound 982] |  |  | IC50 at 72 h ([1]; 72 h, Table 2.4): 4.6 µM
